ChEMBL document CHEMBL3865816, “Design, synthesis and biological evaluation of novel azaspiro analogs of linezolid as antibacterial and antitubercular agents” (Eur J Med Chem, 2016)
≈ marks a conversion by molar mass, not a printed value.

How the values were obtained:
Format in all cases: functional
Escherichia coli [1] = assay: Antibacterial activity against Escherichia coli NCIM 2688 at 10 ug/ml measured after 8 hrs by spectrophotometric method; conditions: NCIM 2688, 8 h
Staphylococcus aureus [2] = assay: Antibacterial activity against Staphylococcus aureus NCIM 2079 at 3 ug/ml measured after 12 hrs by spectrophotometric method; conditions: NCIM 2079, 12 h
Bacillus subtilis [3] = assay: Antibacterial activity against Bacillus subtilis NCIM 2010 measured after 12 hrs by spectrophotometric method; conditions: NCIM 2010, 12 h
Pseudomonas aeruginosa [4] = assay: Antibacterial activity against Pseudomonas aeruginosa NCIM 2036 at 3 ug/ml measured after 8 hrs by spectrophotometric method; conditions: NCIM 2036, 8 h
Bacillus subtilis [5] = assay: Antibacterial activity against Bacillus subtilis NCIM 2010 at 10 ug/ml measured after 12 hrs by spectrophotometric method; conditions: NCIM 2010, 12 h
[6] = system: Mycobacterium tuberculosis; assay: Antitubercular activity against dormant stage Mycobacterium tuberculosis H37Ra at 30 ug/ml measured after 12 days by XTT assay; conditions: 288 h
[7] = system: Mycobacterium tuberculosis; assay: Antitubercular activity against dormant stage Mycobacterium tuberculosis H37Ra at 10 ug/ml measured after 12 days by XTT assay; conditions: 288 h
Staphylococcus aureus [8] = assay: Antibacterial activity against Staphylococcus aureus NCIM 2079 at 10 ug/ml measured after 12 hrs by spectrophotometric method; conditions: NCIM 2079, 12 h
Escherichia coli [9] = assay: Antibacterial activity against Escherichia coli NCIM 2688 at 30 ug/ml measured after 8 hrs by spectrophotometric method; conditions: NCIM 2688, 8 h
Staphylococcus aureus [10] = assay: Antibacterial activity against Staphylococcus aureus NCIM 2079 at 30 ug/ml measured after 12 hrs by spectrophotometric method; conditions: NCIM 2079, 12 h
Bacillus subtilis [11] = assay: Antibacterial activity against Bacillus subtilis NCIM 2010 at 30 ug/ml measured after 12 hrs by spectrophotometric method; conditions: NCIM 2010, 12 h
Pseudomonas aeruginosa [12] = assay: Antibacterial activity against Pseudomonas aeruginosa NCIM 2036 measured after 8 hrs by spectrophotometric method; conditions: NCIM 2036, 8 h
Pseudomonas aeruginosa [13] = assay: Antibacterial activity against Pseudomonas aeruginosa NCIM 2036 at 30 ug/ml measured after 8 hrs by spectrophotometric method; conditions: NCIM 2036, 8 h
Pseudomonas aeruginosa [14] = assay: Antibacterial activity against Pseudomonas aeruginosa NCIM 2036 at 10 ug/ml measured after 8 hrs by spectrophotometric method; conditions: NCIM 2036, 8 h
Bacillus subtilis [15] = assay: Antibacterial activity against Bacillus subtilis NCIM 2010 at 3 ug/ml measured after 12 hrs by spectrophotometric method; conditions: NCIM 2010, 12 h
Staphylococcus aureus [16] = assay: Antibacterial activity against Staphylococcus aureus NCIM 2079 measured after 12 hrs by spectrophotometric method; conditions: NCIM 2079, 12 h
Escherichia coli [17] = assay: Antibacterial activity against Escherichia coli NCIM 2688 at 3 ug/ml measured after 8 hrs by spectrophotometric method; conditions: NCIM 2688, 8 h
Escherichia coli [18] = assay: Antibacterial activity against Escherichia coli NCIM 2688 measured after 8 hrs by spectrophotometric method; conditions: NCIM 2688, 8 h
[19] = system: Mycobacterium tuberculosis; assay: Antitubercular activity against dormant stage Mycobacterium tuberculosis H37Ra measured after 12 days by XTT assay; conditions: 288 h
[20] = system: Mycobacterium tuberculosis; assay: Antitubercular activity against dormant stage Mycobacterium tuberculosis H37Ra at 3 ug/ml measured after 12 days by XTT assay; conditions: 288 h

| Compound | inhibition at 10 µg/mL (Escherichia coli [1]) [%] | inhibition at 3 µg/mL (Staphylococcus aureus [2]) [%] | IC50 (Bacillus subtilis [3]) [mg/L] | MIC (Bacillus subtilis [3]) [mg/L] | inhibition at 3 µg/mL (Pseudomonas aeruginosa [4]) [%] | inhibition at 10 µg/mL (Bacillus subtilis [5]) [%] | inhibition at 30 µg/mL [6] [%] | inhibition at 10 µg/mL [7] [%] | inhibition at 10 µg/mL (Staphylococcus aureus [8]) [%] | inhibition at 30 µg/mL (Escherichia coli [9]) [%] | inhibition at 30 µg/mL (Staphylococcus aureus [10]) [%] | inhibition at 30 µg/mL (Bacillus subtilis [11]) [%] | IC50 (Pseudomonas aeruginosa [12]) [mg/L] | MIC (Pseudomonas aeruginosa [12]) [mg/L] | inhibition at 30 µg/mL (Pseudomonas aeruginosa [13]) [%] | inhibition at 10 µg/mL (Pseudomonas aeruginosa [14]) [%] | inhibition at 3 µg/mL (Bacillus subtilis [15]) [%] | IC50 (Staphylococcus aureus [16]) [mg/L] | MIC (Staphylococcus aureus [16]) [mg/L] | inhibition at 3 µg/mL (Escherichia coli [17]) [%] | also measured |
| --- | --- | --- | --- | --- | --- | --- | --- | --- | --- | --- | --- | --- | --- | --- | --- | --- | --- | --- | --- | --- | --- |
| O=C1O[C@@H](CNC(=S)Nc2cccc(C(F)(F)F)c2)CN1c1ccc(N2CC3(COC3)C2)c(F)c1 | 95.8 | 64.1 | > 100 | > 100 | 45.2 | 80.2 | 78 | 44.5 | 79.2 | 96.3 | 94.5 | 97.2 | > 100 | > 100 | 79.6 | 67 | 65.9 | > 100 | > 100 | 93.3 | IC50 (Escherichia coli [18]): 0.49 mg/L (≈ 0.96 µM); MIC (Escherichia coli [18]): 2.41 mg/L (≈ 4.72 µM); IC50 [19]: > 100 mg/L; MIC [19]: > 100 mg/L; inhibition at 3 µg/mL [20]: 10.7% |
| COCC(=O)NC[C@H]1CN(c2ccc(N3CC4(COC4)C3)c(F)c2)C(=O)O1 | 65.4 | 72.3 | > 100 | > 100 | 14.4 | 77.7 | 50.1 | -13.7 | 92.2 | 66.6 | 98.8 | 95.2 | > 100 | > 100 | 63.7 | 37.1 | 51.2 | > 100 | > 100 | 61.5 | IC50 (Escherichia coli [18]): > 100 mg/L; MIC (Escherichia coli [18]): > 100 mg/L; IC50 [19]: > 100 mg/L; MIC [19]: > 100 mg/L; inhibition at 3 µg/mL [20]: -22.9% |
| O=C1O[C@@H](CNS(=O)(=O)c2cccc(C(F)(F)F)c2)CN1c1ccc(N2CC3(COC3)C2)c(F)c1 | 97.5 | -2.71 | > 100 | > 100 | 0.66 | 17.5 | 25.1 | -59 | 17.3 | 99.5 | 19.5 | 25 | > 100 | > 100 | 70.8 | 43 | 11.2 | > 100 | > 100 | 90.5 | IC50 (Escherichia coli [18]): 0.57 mg/L (≈ 1.11 µM); MIC (Escherichia coli [18]): 3.03 mg/L (≈ 5.88 µM); IC50 [19]: > 100 mg/L; MIC [19]: > 100 mg/L; inhibition at 3 µg/mL [20]: 5.38% |
| O=C1O[C@@H](CNC(=S)Nc2ccc(Cl)cc2)CN1c1ccc(N2CC3(COC3)C2)c(F)c1 | 42.5 | 18.8 | > 100 | > 100 | 34 | 45.6 | -0.48 | 15.7 | 37.9 | 69.9 | 47.5 | 62.6 | > 100 | > 100 | 71.2 | 49.4 | 24.1 | > 100 | > 100 | 47.7 | IC50 (Escherichia coli [18]): > 100 mg/L; MIC (Escherichia coli [18]): > 100 mg/L; IC50 [19]: > 100 mg/L; MIC [19]: > 100 mg/L; inhibition at 3 µg/mL [20]: 14.8% |
| COc1ccc(NC(=S)NC[C@H]2CN(c3ccc(N4CC5(COC5)C4)c(F)c3)C(=O)O2)cc1 | 89.4 | 81.4 | 1.1 (≈ 2.33 µM) | 8.78 (≈ 18.6 µM) | 17.7 | 95.3 | 23.3 | -3.34 | 88.7 | 98 | 98.3 | 100 | > 100 | > 100 | 58.5 | 30.1 | 77.9 | 0.74 to 100 (≈ 1.57 to 212 µM) | 16.1 to 100 (≈ 34.1 to 212 µM) | 82.2 | IC50 (Escherichia coli [18]): 1.1 mg/L (≈ 2.33 µM); MIC (Escherichia coli [18]): 10.7 mg/L (≈ 22.6 µM); IC50 [19]: > 100 mg/L; MIC [19]: > 100 mg/L; inhibition at 3 µg/mL [20]: 14.3% |
| CC1(C)[C@@]2(C)CC[C@]1(C(=O)NC[C@H]1CN(c3ccc(N4CC5(COC5)C4)c(F)c3)C(=O)O1)OC2=O | 28.8 | 50.6 | > 100 | > 100 | 50.6 | 53.8 | 15.6 | -38.5 | 51.1 | 39.5 | 70.2 | 69.8 | > 100 | > 100 | 56.4 | 55 | 40.5 | > 100 | > 100 | 20 | IC50 (Escherichia coli [18]): > 100 mg/L; MIC (Escherichia coli [18]): > 100 mg/L; IC50 [19]: > 100 mg/L; MIC [19]: > 100 mg/L; inhibition at 3 µg/mL [20]: 9.81% |
| O=C(NC[C@H]1CN(c2ccc(N3CC4(COC4)C3)c(F)c2)C(=O)O1)Nc1ccc(Cl)cc1 | 31.9 | 47.4 | > 100 | > 100 | 12.4 | 63.6 | 30.2 | 25.6 | 57.3 | 59.1 | 62.1 | 65 | > 100 | > 100 | 62 | 33.1 | 59.6 | > 100 | > 100 | 7.39 | IC50 (Escherichia coli [18]): > 100 mg/L; MIC (Escherichia coli [18]): > 100 mg/L; IC50 [19]: > 100 mg/L; MIC [19]: > 100 mg/L; inhibition at 3 µg/mL [20]: 6.78% |
| O=C1OC2(CCNC2)CN1c1ccc(N2CCOCC2)c(F)c1 (stereo not given) | 96.2 | 36.2 | > 100 | > 100 | 22.6 | 21.5 | 49.3 | 17 | 46.8 | 99.8 | 50.2 | 32.2 | > 100 | > 100 | 36.2 | 32.2 | 8.05 | > 100 | > 100 | 86.4 | IC50 (Escherichia coli [18]): 4.44 mg/L (≈ 13.8 µM); MIC (Escherichia coli [18]): 0.554 mg/L (≈ 1.72 µM); IC50 [19]: > 100 mg/L; MIC [19]: > 100 mg/L; inhibition at 3 µg/mL [20]: 13.6% |
| O=C1O[C@@H](CNC(=S)Nc2ccc([N+](=O)[O-])cc2)CN1c1ccc(N2CC3(COC3)C2)c(F)c1 | 61 | 66.7 | > 100 | > 100 | 9.11 | 76.2 | -13.5 | 4.66 | 74.5 | 65.5 | 81 | 80.4 | > 100 | > 100 | 73.6 | 41.8 | 62.7 | > 100 | > 100 | 51.8 | IC50 (Escherichia coli [18]): > 100 mg/L; MIC (Escherichia coli [18]): > 100 mg/L; IC50 [19]: > 100 mg/L; MIC [19]: > 100 mg/L; inhibition at 3 µg/mL [20]: 9.41% |
